Experimental data reported in ChEMBL document CHEMBL1127408, “Anti-AIDS agents. 15. Synthesis and anti-HIV activity of dihydroseselins and related analogs” (J Med Chem, 1994).
pEC50: −log10 of the molar value.

What was measured:
[1] = system: Human immunodeficiency virus 1; assay: Anti-HIV activity in acutely infected H9 lymphocytes.; format: functional, organism-based
[2] = (§1) Tested for in vitro therapeutic index as the ratio of IC50 to EC50 in acutely infected H9 Lymphocytes; format: organism-based, Human immunodeficiency virus 1; conditions: human immunodeficiency virus 1, H9 lymphocytes acutely infected with HIV-1; read-out: TI
[3] = system: Human immunodeficiency virus 1; assay: as §1; format: organism-based; conditions: Human immunodeficiency virus 1
[4] = Tested for in vitro therapeutic index as the ratio of IC50 to EC50 in PBMCs; conditions: human, read-out: TI
U-937 = assay: Compound was tested for anti-HIV activity in acutely infected U937; format: functional, cell-based; conditions: Homo sapiens
[5] = Tested for in vitro therapeutic index as the ratio of IC50 to EC50 in acutely infected U937; format: cell-based, U-937; conditions: human, acutely infected U937 cells; read-out: TI

Structure (SMILES) | pEC50 ([1]; Human immunodeficiency virus 1) | selectivity ratio [2] | further results
Cc1cn([C@H]2C[C@H](N=[N+]=[N-])[C@@H](CO)O2)c(=O)[nH]c1=O [ZIDOVUDINE] | 6.82 | 12500 | 
COC1C(OC(=O)c2cccc(Cl)c2)c2c(ccc3ccc(=O)oc23)OC1(C)C (stereo not given) | 3.62 | 0.34 | 
CC(C)CC(=O)OC1C(OC(=O)c2cccc(Cl)c2)c2c(ccc3ccc(=O)oc23)OC1(C)C (stereo not given) | 5.03 | 1.4 | 
CC1(C)C=Cc2c(ccc3ccc(=O)oc23)O1 [SESALIN] | 5.46 | 5 | 
CC1(C)Oc2ccc3ccc(=O)oc3c2C(OC(=O)C23CCC(C)(C(=O)O2)C3(C)C)C1OC(=O)C12CCC(C)(C(=O)O1)C2(C)C (stereo in doubt; 38) | 4.62 | 3 | 
CC(C)[C@H]1CC[C@H](C)C[C@@H]1OC(=O)OC1c2c(ccc3ccc(=O)oc23)OC(C)(C)C1OC(=O)O[C@@H]1C[C@H](C)CC[C@H]1C(C)C (stereo not given in full) | 4.94 | 2.9 | 
CC(=O)O[C@@H]1[C@H](OC(=O)CC(C)C)c2c(ccc3ccc(=O)oc23)OC1(C)C [SUKSDORFIN] | 5.59 | 30.6 | 
CC1(C)Oc2ccc3ccc(=O)oc3c2C(OC(=O)c2cccc(Cl)c2)C1O (stereo not given) | 5.38 | 2.4 | 
CC1(C)Oc2ccc3ccc(=O)oc3c2[C@@H](OC(=O)C23CCC(C)(C(=O)O2)C3(C)C)[C@H]1OC(=O)C12CCC(C)(C(=O)O1)C2(C)C (mixture of isomers; 17) |  |  | pEC50 [1]: 3.84; TI [3]: 1.1
CC(=O)OC1c2c(ccc3ccc(=O)oc23)OC(C)(C)C1OCc1ccccc1 (stereo not given) | 4.42 | 2.3 | 
CC(C)CC(=O)OC1c2c(ccc3ccc(=O)oc23)OC(C)(C)C1OC(=O)CC(C)C (stereo in doubt; 42) |  |  | pEC50 [1]: 4.68; TI [3]: 3
C/C=C(\C)C(=O)O[C@@H]1c2c(ccc3ccc(=O)oc23)OC(C)(C)[C@@H]1OC(C)=O [PTERYXIN] | 5.34 | 4.5 | 
CC(C)(C)c1ccc(C(=O)OC2c3c(ccc4ccc(=O)oc34)OC(C)(C)C2OC(=O)c2ccc(C(C)(C)C)cc2)cc1 (stereo not given) | > 5.85 | > 2.2 | 
CC1(C)Oc2ccc3ccc(=O)oc3c2C(OC(=O)c2cccc(Cl)c2)C1OC1CCCCO1 (single isomer, unassigned) | 5.08 | 10 | 
CC1(C)Oc2ccc3ccc(=O)oc3c2C(OC(=O)c2cccc(Cl)c2)C1OCc1ccccc1 (stereo not given) | 5.51 | 5 | 
CC(C)=CC(=O)OC1c2c(ccc3ccc(=O)oc23)OC(C)(C)C1OC(=O)C=C(C)C (stereo not given) | 5.33 | 3.5 | 
CCC(C)C(=O)OC1c2c(ccc3ccc(=O)oc23)OC(C)(C)C1OC(=O)C(C)CC (stereo not given) | 5.15 | 14.4 | 
CC(C)CC(=O)OC1c2c(ccc3ccc(=O)oc23)OC(C)(C)C1OC(=O)CC(C)C (stereo in doubt; 9) |  | 2 | pEC50 [1]: 5.15
CC1(C)Oc2ccc3ccc(=O)oc3c2C(OC(=O)C23CCC(C)(C(=O)O2)C3(C)C)C1OC(=O)C12CCC(C)(C(=O)O1)C2(C)C (stereo in doubt; 39) |  |  | pEC50 [1]: 4.49; TI [3]: > 5
CC1(C)Oc2ccc3ccc(=O)oc3c2[C@@H](OC(=O)C23CCC(C)(C(=O)O2)C3(C)C)[C@H]1OC(=O)C12CCC(C)(C(=O)O1)C2(C)C (mixture of isomers; 16) |  |  | selectivity ratio [4]: 472; pEC50 [1]: 5.40; pEC50 (U-937): 8.68; selectivity ratio [5]: 11700; TI [3]: 136719
CC(C)(C)CC(=O)O[C@@H]1c2c(ccc3ccc(=O)oc23)OC(C)(C)[C@@H]1OC(=O)CC(C)(C)C | 4.66 | 2 | 
CC(=O)OC1C(N=[N+]=[N-])c2c(ccc3ccc(=O)oc23)OC1(C)C (stereo not given) | 3.94 | 1 | 
CC(=O)OC1c2c(ccc3ccc(=O)oc23)OC(C)(C)C1OC(C)=O (stereo in doubt; 37) |  |  | pEC50 [1]: 4.37; TI [3]: 3
CC1(C)Oc2ccc3ccc(=O)oc3c2C(N=[N+]=[N-])C1O (stereo not given) | 3.94 | 2.9 | 
CC(=O)OC1c2c(ccc3ccc(=O)oc23)OC(C)(C)C1OC(C)=O (stereo in doubt; 8) | 4.16 |  | TI [3]: 0.4
CC1(C)Oc2ccc3ccc(=O)oc3c2C(O)C1OCc1ccccc1 (stereo not given) | 4.37 | 2.7 | 
